Laboratory results reported in publication PMC7317212 (Chemmedchem, 2020).
pIC50: −log10 of the molar value.

Experiments:
Format in all cases: cell-based
mGAT4 [1] = target: T1, mGAT4 (Mus musculus, UniProt P31650); test: [^3H]GABA uptake assay, HEK293 cells expressing mGAT4; settings: [^3H]GABA uptake; pIC50±SEM
T1 construct: expressed in transfected cells; host or cells: HEK293
T1 sequence (P31650 1-627): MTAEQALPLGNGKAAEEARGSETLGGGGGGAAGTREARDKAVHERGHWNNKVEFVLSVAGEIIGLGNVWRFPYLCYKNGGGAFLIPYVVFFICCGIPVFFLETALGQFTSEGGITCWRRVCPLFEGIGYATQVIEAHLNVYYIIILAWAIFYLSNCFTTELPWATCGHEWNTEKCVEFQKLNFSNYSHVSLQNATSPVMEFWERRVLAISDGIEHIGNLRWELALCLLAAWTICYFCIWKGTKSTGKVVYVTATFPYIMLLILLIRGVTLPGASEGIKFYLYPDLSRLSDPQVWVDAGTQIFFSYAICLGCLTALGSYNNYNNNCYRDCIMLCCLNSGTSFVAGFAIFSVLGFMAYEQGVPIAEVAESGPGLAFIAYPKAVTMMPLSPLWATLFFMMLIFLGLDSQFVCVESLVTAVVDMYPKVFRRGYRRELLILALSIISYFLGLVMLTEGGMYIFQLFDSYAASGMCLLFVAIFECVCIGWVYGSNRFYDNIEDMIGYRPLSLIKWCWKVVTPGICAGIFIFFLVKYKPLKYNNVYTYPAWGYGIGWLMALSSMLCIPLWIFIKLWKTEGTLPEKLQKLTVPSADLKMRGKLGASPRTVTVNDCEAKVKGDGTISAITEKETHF
In short: (§1)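 HEK293 cells expressing mouse GATs preincubated 25 min at 37 °C with compound in Krebs buffer pH 7.2, then [3H]GABA added: 8 nM plus 32 nM unlabeled for 4 min (mGAT1/3/4), 20 nM plus 20 nM for 10 min (mGAT2). Filtration, scintillation counting; nonspecific uptake with 10 mM (mGAT1/3/4) or 100 mM GABA (mGAT2); pIC50.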

mGAT3 = target: T2, mGAT3 (Mus musculus, UniProt P31649); test: [^3H]GABA uptake assay, HEK293 cells expressing mGAT3; settings: [^3H]GABA uptake; pIC50±SEM
T2 construct: expressed in transfected cells; host or cells: HEK293
T2 sequence (P31649 1-602): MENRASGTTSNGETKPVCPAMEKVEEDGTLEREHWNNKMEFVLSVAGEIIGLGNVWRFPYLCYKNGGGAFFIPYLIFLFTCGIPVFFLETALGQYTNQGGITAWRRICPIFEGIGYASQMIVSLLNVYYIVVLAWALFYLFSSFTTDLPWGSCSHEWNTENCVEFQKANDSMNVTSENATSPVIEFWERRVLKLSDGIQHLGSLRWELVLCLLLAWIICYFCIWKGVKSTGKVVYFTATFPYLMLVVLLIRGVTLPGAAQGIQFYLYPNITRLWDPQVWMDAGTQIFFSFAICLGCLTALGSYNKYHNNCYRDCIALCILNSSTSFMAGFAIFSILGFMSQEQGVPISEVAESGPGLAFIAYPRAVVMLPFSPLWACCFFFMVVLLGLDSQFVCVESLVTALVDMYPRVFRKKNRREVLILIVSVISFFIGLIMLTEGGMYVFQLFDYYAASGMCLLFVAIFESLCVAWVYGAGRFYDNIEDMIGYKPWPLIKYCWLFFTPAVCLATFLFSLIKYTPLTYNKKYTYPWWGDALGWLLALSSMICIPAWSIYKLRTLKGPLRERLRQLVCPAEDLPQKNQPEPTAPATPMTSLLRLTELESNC
In short: as §1

mGAT4 [2] = target: T1, mGAT4; test: GABA uptake inhibition at mGAT4 with varied preincubation time

COc1ccc(C(OCCN2CCCC(C(=O)O)C2)(c2ccc(C=O)cc2)c2ccc(OC)cc2)cc1 (racemic) [5 a, rac‐ 1‐{2‐[(4‐Formylphenyl)bis(4‐methoxyphenyl)methoxy]ethyl}piper‐idine‐3‐carboxylic acid]
pIC50 (mGAT4 [1]): 5.77 | pIC50 (mGAT3): 4.98 | IC50 (mGAT4 [2]; Experiment No. 1, preincubation time 10 min, read-out: pIC50 mGAT4 (converted)): 1.35 µM | IC50 (mGAT4 [2]; Experiment No. 1, preincubation time 25 min, read-out: pIC50 mGAT4 (converted)): 1.05 µM | IC50 (mGAT4 [2]; Experiment No. 1, preincubation time 60 min, read-out: pIC50 mGAT4 (converted)): 0.912 µM | IC50 (mGAT4 [2]; Experiment No. 2, preincubation time 10 min, read-out: pIC50 mGAT4 (converted)): 2.69 µM | IC50 (mGAT4 [2]; Experiment No. 2, preincubation time 25 min, read-out: pIC50 mGAT4 (converted)): 1.86 µM | IC50 (mGAT4 [2]; Experiment No. 2, preincubation time 60 min, read-out: pIC50 mGAT4 (converted)): 1.23 µM | IC50 (mGAT4 [2]; Experiment No. 3, preincubation time 10 min, read-out: pIC50 mGAT4 (converted)): 2.69 µM | IC50 (mGAT4 [2]; Experiment No. 3, preincubation time 25 min, read-out: pIC50 mGAT4 (converted)): 1.48 µM | IC50 (mGAT4 [2]; Experiment No. 3, preincubation time 60 min, read-out: pIC50 mGAT4 (converted)): 1.66 µM | IC50 (mGAT4 [2]; Experiment No. 4, preincubation time 25 min, read-out: pIC50 mGAT4 (converted)): 2 µM | IC50 (mGAT4 [2]; Experiment No. 4, preincubation time 60 min, read-out: pIC50 mGAT4 (converted)): 0.617 µM | IC50 (mGAT4 [2]; Experiment No. 5, preincubation time 25 min, read-out: pIC50 mGAT4 (converted)): 1.58 µM | IC50 (mGAT4 [2]; Experiment No. 5, preincubation time 60 min, read-out: pIC50 mGAT4 (converted)): 1.26 µM | IC50 (mGAT4 [2]; Experiment No. 6, preincubation time 25 min, read-out: pIC50 mGAT4 (converted)): 1.38 µM | IC50 (mGAT4 [2]; Experiment No. 6, preincubation time 60 min, read-out: pIC50 mGAT4 (converted)): 1.02 µM | Normalized pIC50 mGAT4 (mGAT4 [2]; preincubation time 10 min, experiments 1-3, relative to 25 min = 100.00): 97.98 | IC50 (mGAT4 [2]; preincubation time 10 min, experiments 1-3, read-out: Average pIC50 mGAT4 (converted)): 2.14 µM | Normalized pIC50 mGAT4 (mGAT4 [2]; preincubation time 25 min, experiments 1-3 (reference)): 100.00 | IC50 (mGAT4 [2]; preincubation time 25 min, experiments 1-3, read-out: Average pIC50 mGAT4 (converted)): 1.41 µM | Normalized pIC50 mGAT4 (mGAT4 [2]; preincubation time 25 min, experiments 4-6 (reference)): 100.00 | IC50 (mGAT4 [2]; preincubation time 25 min, experiments 4-6, read-out: Average pIC50 mGAT4 (converted)): 1.62 µM | Normalized pIC50 mGAT4 (mGAT4 [2]; preincubation time 60 min, experiments 1-3, relative to 25 min = 100.00): 101.08 | IC50 (mGAT4 [2]; preincubation time 60 min, experiments 1-3, read-out: Average pIC50 mGAT4 (converted)): 1.23 µM | Normalized pIC50 mGAT4 (mGAT4 [2]; preincubation time 60 min, experiments 4-6, relative to 25 min = 100.00): 104.26 | IC50 (mGAT4 [2]; preincubation time 60 min, experiments 4-6, read-out: Average pIC50 mGAT4 (converted)): 0.933 µM
